Marks after values point to notes of the source that are not given here.
Test system: Xenopus laevis cleavage stage embryos (stage 8)
Experiment: Xenopus cDNA microarray, differential gene expression after PMA treatment during cleavage stage (Group I)
Format: in vivo
Conditions: stage 8; for Normalized by Landmarks (1.59) / Normalized by all Data Points (1.28) / Ratio of Medians (Cy5/Cy3) First Spot / Ratio of Medians (Cy5/Cy3) Mean / Ratio of Medians (Cy5/Cy3) Second Spot / (CY3/CY5) by Landmarks (1.6) / (CY3/CY5) by all Data Points (1.3) / Normalization by Landmarks (1.6) / Normalization by all Data Points (1.3): PMA 100 ng/ml
Excerpt: Specifically, the method and screen of the present invention function as follows. EST clones produced from Xenopus laevis unfertilized eggs were used in the present study with ˜1,200 EST clones from a 18,500 EST clone set selected for production of a Xenopus cDNA microarray. The Xenopus microarray was used to measure the effect of chemical treatment on Xenopus embryo gene regulation. The chemical treatment was a phorbol ester, PMA. Xenopus eggs were obtained from females induced for ovulation and fertilized in vitro. Control Xenopus laevis embryos were allowed to develop to stage 8 blastula or stage 15 neurula. Treated embryos were exposed to PMA during cleavage stage or during neurulation with end points of blastula (stage 8) or neurula (stage 15). Specifically, PMA 100 ng/ml was added to the incubation media during cleavage stages for evaluation in stage 8 embryo or PMA was added during neural induction for evaluation in stage 15 embryos. RNA extracted from the embryos was used to generate fluorescent cDNA probes for Xenopus microarray analyses to measure differential gene expression with and without the phorbol ester treatment. Analysis was performed using paired RNA samples to compare PMA-treated and untreated embryos: Group I measured the effects of PMA-treatment during the cleavage stage in stage 8 embryos and Group II measured the effects of PMA-treatment during neurulation in stage 15 embryos. Group III measured the change in gene expression between stage 8 and stage 15 embryos.
cDNA fragments were obtained by PCR replication of Xenopus laevis unfertilized egg cDNA inserts, purified, quantitated and loaded onto glass chips by robotics. In addition to the selected ˜1,200 genes, 64 lambda Q gene, an internal control cDNA (Genomic Solutions, Inc., Ann Arbor, Mich.) was loaded on the chip. The insert DNA from ˜1,200 clones were PCR amplified using forward and reverse primers (GF.200 primers, Research Genetics, Huntsville, Ala.). A second PCR was carried out using 1 μl of the primary PCR (20 μl) for template. Excess dNTPs, polymerase and other PCR artifacts were removed from the secondary PCR reactions using Millipore Multiscreen plates (Millipore Corporation, Bedford, Mass.) using the standard protocol. The purity of the PCR products was assessed by electrophoresis and documented using an Alphalmager 1000 Digital Imaging System (Alpha Innotech Corporation, San Leandro, Calif.). The DNA obtained by PCR was quantitated using PicoGreen (Molecular Probes, Eugene, Oreg.). The DNA was denatured and arrayed onto amino-silane coated microscope slides (CMT-GAPS coated slides, Corning, Corning, N.Y.) using a Flexys robotic workstation (Genomic Solutions Inc.). The ˜1,200 PCR products were arrayed in duplicate on each slide and cross-linked. Each gene chip contained duplicate cDNA samples.
Total RNA was prepared from embryos treated in three separate dishes per treatment group that were pooled. Total RNA was isolated from the frog embryos (1,200 embryos for each probe production) using TRIzol extraction (Gibco BRL, Grand Island, N.Y.) and Qiagen RNeasy kits (Qiagen, Valencia, Calif.). The ethanol precipitated RNA was resuspended in RNase-free water, quantitated with RiboGreen (Molecular Probes, Eugene, Oreg.). Total RNA was further purified using oligoTex mRNA maxi kit (Qiagen Co.) with the bound mRNA eluted with minimum volume of elution buffer and precipitated with ethanol. The recovery rate of mRNA by the ethanol precipitation method was ˜70%. Cy3- or Cy5-tagged probes were produced from an mRNA mixture (20 μl) of Xenopus mRNA (5 μg) and lambda Q gene mRNA (3.5 ng) reverse-transcribed with oligo(dT)18-22 primer and dNTPs and the reverse-transcribed cDNA was cross-linked with Cy3 or Cy5 as described in Clontech Atlas™ Glass Fluorescent Labeling kit manual (www.clontech.com). After hydrolysis of the RNA and purification of the probe (Centricon 50, Millipore, Bedford, Mass.), the cDNA in TE buffer was quantitated by absorbance at 260 nm. […]

## CCCCCCCCCCCCCC(=O)O[C@@H]1[C@@H](C)[C@@]2(O)[C@@H](C=C(CO)C[C@]3(O)C(=O)C(C)=C[C@@H]23)[C@@H]2C(C)(C)[C@]12OC(C)=O [PMA, phorbol 12-myristate 12-acetate]
2 alpha-tubulin genes (house keeping)
  alpha-tubulin expression ratio, mean of 4 data points using NF from landmarks: 0.85
PBX0134C10 mRNA
  Normalized by Landmarks (1.59): 7.95
  Normalized by all Data Points (1.28): 6.40
  Ratio of Medians (Cy5/Cy3) First Spot: 3.33
  Ratio of Medians (Cy5/Cy3) Mean: 5.00 ± 1.67^a
  Ratio of Medians (Cy5/Cy3) Second Spot: 6.67
PBX0134E04 mRNA
  Normalized by Landmarks (1.59): 4.58
  Normalized by all Data Points (1.28): 3.69
  Ratio of Medians (Cy5/Cy3) First Spot: 2.75
  Ratio of Medians (Cy5/Cy3) Mean: 2.88 ± 0.12
  Ratio of Medians (Cy5/Cy3) Second Spot: 3.00
PBX0134G08 mRNA
  Normalized by Landmarks (1.59): 7.62
  Normalized by all Data Points (1.28): 6.13
  Ratio of Medians (Cy5/Cy3) First Spot: 4.25
  Ratio of Medians (Cy5/Cy3) Mean: 4.79 ± 0.54
  Ratio of Medians (Cy5/Cy3) Second Spot: 5.33
PBX0134G10 mRNA
  Normalized by Landmarks (1.59): 5.20
  Normalized by all Data Points (1.28): 4.19
  Ratio of Medians (Cy5/Cy3) First Spot: 2.71
  Ratio of Medians (Cy5/Cy3) Mean: 3.27 ± 0.56
  Ratio of Medians (Cy5/Cy3) Second Spot: 3.83
PBX0134G11 mRNA
  Normalized by Landmarks (1.59): 3.90
  Normalized by all Data Points (1.28): 3.14
  Ratio of Medians (Cy5/Cy3) First Spot: 2.50
  Ratio of Medians (Cy5/Cy3) Mean: 2.45 ± 0.05
  Ratio of Medians (Cy5/Cy3) Second Spot: 2.40
PBX0134H03 mRNA
  Normalized by Landmarks (1.59): 5.44
  Normalized by all Data Points (1.28): 4.38
  Ratio of Medians (Cy5/Cy3) First Spot: 3.67
  Ratio of Medians (Cy5/Cy3) Mean: 3.42 ± 0.25
  Ratio of Medians (Cy5/Cy3) Second Spot: 3.17
PBX0135C06 mRNA
  Normalized by Landmarks (1.59): 4.29
  Normalized by all Data Points (1.28): 3.46
  Ratio of Medians (Cy5/Cy3) First Spot: 3.00
  Ratio of Medians (Cy5/Cy3) Mean: 2.70 ± 0.30
  Ratio of Medians (Cy5/Cy3) Second Spot: 2.40
PBX0136B04 mRNA
  (CY3/CY5) by Landmarks (1.6): 2.76
  (CY3/CY5) by all Data Points (1.3): 4.41
  Normalization by Landmarks (1.6): 0.36
  Normalization by all Data Points (1.3): 0.23
  Ratio of Medians (Cy5/Cy3) First Spot: 0.11
  Ratio of Medians (Cy5/Cy3) Mean: 0.17 ± 0.06
  Ratio of Medians (Cy5/Cy3) Second Spot: 0.24
PBX0136C09 mRNA
  Normalized by Landmarks (1.59): 5.55
  Normalized by all Data Points (1.28): 4.47
  Ratio of Medians (Cy5/Cy3) First Spot: 3.80
  Ratio of Medians (Cy5/Cy3) Mean: 3.49 ± 0.31
  Ratio of Medians (Cy5/Cy3) Second Spot: 3.17
PBX0136F03 mRNA
  Normalized by Landmarks (1.59): 5.26
  Normalized by all Data Points (1.28): 4.24
  Ratio of Medians (Cy5/Cy3) First Spot: 3.50
  Ratio of Medians (Cy5/Cy3) Mean: 3.31 ± 0.20
  Ratio of Medians (Cy5/Cy3) Second Spot: 3.11
PBX0137A11 mRNA
  Normalized by Landmarks (1.59): 5.31
  Normalized by all Data Points (1.28): 4.28
  Ratio of Medians (Cy5/Cy3) First Spot: 2.17
  Ratio of Medians (Cy5/Cy3) Mean: 3.34 ± 1.66
  Ratio of Medians (Cy5/Cy3) Second Spot: 4.50
PBX0137E10 mRNA
  (CY3/CY5) by Landmarks (1.6): 1.85
  (CY3/CY5) by all Data Points (1.3): 2.96
  Normalization by Landmarks (1.6): 0.54
  Normalization by all Data Points (1.3): 0.34
  Ratio of Medians (Cy5/Cy3) First Spot: 0.31
  Ratio of Medians (Cy5/Cy3) Mean: 0.26 ± 0.05
  Ratio of Medians (Cy5/Cy3) Second Spot: 0.21
PBX0137G06 mRNA
  Normalized by Landmarks (1.59): 3.74
  Normalized by all Data Points (1.28): 3.01
  Ratio of Medians (Cy5/Cy3) First Spot: 2.22
  Ratio of Medians (Cy5/Cy3) Mean: 2.35 ± 0.13
  Ratio of Medians (Cy5/Cy3) Second Spot: 2.47
PBX0138A04 mRNA
  Normalized by Landmarks (1.59): 4.75
  Normalized by all Data Points (1.28): 3.83
  Ratio of Medians (Cy5/Cy3) First Spot: 1.64
  Ratio of Medians (Cy5/Cy3) Mean: 2.99 ± 1.32
  Ratio of Medians (Cy5/Cy3) Second Spot: 4.33
PBX0138C12 mRNA
  (CY3/CY5) by Landmarks (1.6): 3.59
  (CY3/CY5) by all Data Points (1.3): 5.74
  Normalization by Landmarks (1.6): 0.28
  Normalization by all Data Points (1.3): 0.17
  Ratio of Medians (Cy5/Cy3) First Spot: 0.14
  Ratio of Medians (Cy5/Cy3) Mean: 0.13 ± 0.01
  Ratio of Medians (Cy5/Cy3) Second Spot: 0.13
PBX0138D01 mRNA
  Normalized by Landmarks (1.59): 4.45
  Normalized by all Data Points (1.28): 3.58
  Ratio of Medians (Cy5/Cy3) First Spot: 3.50
  Ratio of Medians (Cy5/Cy3) Mean: 2.80 ± 0.70
  Ratio of Medians (Cy5/Cy3) Second Spot: 2.10
PBX0138E10 mRNA
  (CY3/CY5) by Landmarks (1.6): 2.68
  (CY3/CY5) by all Data Points (1.3): 4.29
  Normalization by Landmarks (1.6): 0.37
  Normalization by all Data Points (1.3): 0.23
  Ratio of Medians (Cy5/Cy3) First Spot: 0.15
  Ratio of Medians (Cy5/Cy3) Mean: 0.18 ± 0.03
  Ratio of Medians (Cy5/Cy3) Second Spot: 0.21
PBX0138G10 mRNA
  (CY3/CY5) by Landmarks (1.6): 3.35
  (CY3/CY5) by all Data Points (1.3): 5.36
  Normalization by Landmarks (1.6): 0.30
  Normalization by all Data Points (1.3): 0.19
  Ratio of Medians (Cy5/Cy3) First Spot: 0.10
  Ratio of Medians (Cy5/Cy3) Mean: 0.14 ± 0.04
  Ratio of Medians (Cy5/Cy3) Second Spot: 0.18
PBX0138G12 mRNA
  (CY3/CY5) by Landmarks (1.6): 2.56
  (CY3/CY5) by all Data Points (1.3): 4.09
  Normalization by Landmarks (1.6): 0.39
  Normalization by all Data Points (1.3): 0.24
  Ratio of Medians (Cy5/Cy3) First Spot: 0.17
  Ratio of Medians (Cy5/Cy3) Mean: 0.19 ± 0.02
  Ratio of Medians (Cy5/Cy3) Second Spot: 0.21
PBX0139A08 mRNA
  Normalized by Landmarks (1.59): 4.21
  Normalized by all Data Points (1.28): 3.39
  Ratio of Medians (Cy5/Cy3) First Spot: 2.00
  Ratio of Medians (Cy5/Cy3) Mean: 2.65 ± 0.65
  Ratio of Medians (Cy5/Cy3) Second Spot: 3.29
PBX0139B06 mRNA
  Normalized by Landmarks (1.59): 5.45
  Normalized by all Data Points (1.28): 4.39
  Ratio of Medians (Cy5/Cy3) First Spot: 4.00
  Ratio of Medians (Cy5/Cy3) Mean: 3.43 ± 0.57
  Ratio of Medians (Cy5/Cy3) Second Spot: 2.86
PBX0139D03 mRNA
  (CY3/CY5) by Landmarks (1.6): 3.15
  (CY3/CY5) by all Data Points (1.3): 5.04
  Normalization by Landmarks (1.6): 0.32
  Normalization by all Data Points (1.3): 0.20
  Ratio of Medians (Cy5/Cy3) First Spot: 0.04
  Ratio of Medians (Cy5/Cy3) Mean: 0.15 ± 0.11
  Ratio of Medians (Cy5/Cy3) Second Spot: 0.26
PBX0139F05 mRNA
  (CY3/CY5) by Landmarks (1.6): 3.52
  (CY3/CY5) by all Data Points (1.3): 5.64
  Normalization by Landmarks (1.6): 0.28
  Normalization by all Data Points (1.3): 0.18
  Ratio of Medians (Cy5/Cy3) First Spot: 0.15
  Ratio of Medians (Cy5/Cy3) Mean: 0.14 ± 0.02
  Ratio of Medians (Cy5/Cy3) Second Spot: 0.12
PBX0139F12 mRNA
  (CY3/CY5) by Landmarks (1.6): 2.63
  (CY3/CY5) by all Data Points (1.3): 4.21
  Normalization by Landmarks (1.6): 0.38
  Normalization by all Data Points (1.3): 0.24
  Ratio of Medians (Cy5/Cy3) First Spot: 0.20
  Ratio of Medians (Cy5/Cy3) Mean: 0.18 ± 0.02
  Ratio of Medians (Cy5/Cy3) Second Spot: 0.16
PBX0139H03 mRNA
  (CY3/CY5) by Landmarks (1.6): 2.11
  (CY3/CY5) by all Data Points (1.3): 3.38
  Normalization by Landmarks (1.6): 0.47
  Normalization by all Data Points (1.3): 0.30
  Ratio of Medians (Cy5/Cy3) First Spot: 0.26
  Ratio of Medians (Cy5/Cy3) Mean: 0.23 ± 0.03
  Ratio of Medians (Cy5/Cy3) Second Spot: 0.20

From US20080145858A1, “DETECTION AND IDENTIFICATION OF TOXICANTS BY MEASUREMENT OF GENE […]” (priority 2003, published 2008)
